Measured values reported in patent publication US12319655B2, “RAF kinase inhibitors and methods of use thereof” (Deciphera Pharmaceuticals, LLC, priority 2021, dated 2025).

system: WM3629 cells; experiment: WM3629 Cell Proliferation Assay (1); format: cell-based; conditions: not given
Experimental: WM3629 Cell Proliferation Assay (1)
WM3629 cells (#WM3629-01-0001) are obtained from Rockland Immunochemicals Inc (Gilbertsville, PA). Briefly, cells were grown in MCDB 153 medium (Sigma, #M7403, St. Louis, MO) supplemented with 20% Leibovitz's L-15 (ThermoFisher #11415-064, Waltham, MA), 2% heat inactivated fetal bovine serum (ThermoFisher, #A3840001, Waltham, MA), 5 μg/mL Insulin (Bovine Pancreas) (Sigma, #10516, St. Louis, MO), 1.68 mM Calcium Chloride (Sigma, #C-34006, St. Louis, MO) and 1% Penicillin/Streptomycin/L-Glutamine (ThermoFisher #10378016, Waltham, MA) at 37° C., 5% CO2, and 95% humidity. Cells are expanded until reaching 70-95% confluency at which point they are subcultured or harvested for assay use. A serial dilution of test compound is dispensed into a 96-well black clear bottom plate in triplicate. Four thousand five hundred cells are added per well in 200 μL complete growth medium in the 96-well plate. Plates are incubated for 67-72 hours at 37° C., 5% CO2, and 95% humidity. At the end of the incubation, 40 μL of a 440 μM solution of resazurin (Sigma, #199303, St. Louis, MO) in PBS is added to each well of the plate and plates are incubated for an additional 6-7 hours at 37° C., 5% CO2, and 95% humidity. Plates are read on a Synergy2 or equivalent reader (Biotek, Winooski VT) using an excitation of 540 nm and an emission of 600 nm. Data is analyzed using Prism software (GraphPad, San Diego, CA) to calculate IC50 values.

Which IC50 does the source give for `CNC(=O)c1cc(-c2cc(-c3cc(NC(=O)c4ccnc(C5(C#N)CC5)c4)ccc3C)ncn2)ccn1` [Example 178] here?
Its IC50 is at most 100 nM.

With `Cc1ccc(NC(=O)c2ccnc(C3(C#N)CC3)c2)cc1-c1ccnc(-c2ccnc(NC(=O)C3CC3)c2)n1` [Example 180] as the molecule, how does the IC50 read?
The IC50 was at most 100 nM.

`Cc1ncc(NC(=O)c2ccnc(C(C)(C)C#N)c2)cc1-c1cccc(-c2cc(NC(=O)C3CC3)ncn2)c1` [Example 181] was tested. Which IC50 did it give?
Its IC50 is at most 100 nM.

system: H2405 cells; experiment: H2405 Cell Proliferation Assay (1); format: cell-based; conditions: Homo sapiens, NCI-H2405
Experimental: H2405 Cell Proliferation Assay (1)
H2405 cells (catalog #CRL-5994) are obtained from the American Type Culture Collect (ATTC, Manassas, VA). Briefly, cells were grown in RPMI 1640 supplemented with 5% characterized fetal bovine serum (Invitrogen, Carlsbad, CA) and 1% Penicillin/Streptomycin/L-Glutamine at 37° C., 5% CO2, and 95% humidity. Cells are expanded until reaching 70-95% confluency at which point they are sub-cultured or harvested for assay use. A serial dilution of test compound is dispensed into a 96-well black clear bottom plate in triplicate. Three thousand cells are added per well in 200 μL complete growth medium in the 96-well plate. Plates are incubated for 67-72 h at 37° C., 5% CO2, and 95% humidity. At the end of the incubation, 40 μL of a 440 μM solution of resazurin (Sigma, St. Louis, MO) in PBS is added to each well of the plate and plates are incubated for an additional 5-6 h at 37° C., 5% CO2, and 95% humidity. Plates are read on a Synergy2 or equivalent reader (Biotek, Winooski VT) using an excitation of 540 nm and an emission of 600 nm. Data is analyzed using Prism software (GraphPad, San Diego, CA) to calculate IC50 values.

With `CC(=O)Nc1cc(-c2cc(-c3cc(NC(=O)c4ccnc(C(F)(F)F)c4)ccc3C)ccn2)ccn1` [Example 6] as the molecule, how does the IC50 read?
Its IC50 is at most 100 nM.

For `CC(=O)Nc1cc(-c2ccnc(-c3cc(NC(=O)c4ccnc(C(C)(C)C#N)c4)ccc3C)n2)ccn1` [Example 103], which IC50 is on record?
The IC50 was at most 100 nM.

`Cc1cc(F)c(NC(=O)c2ccnc(C(C)(C)C#N)c2)cc1-c1ccnc(-c2ccnc(NC=O)c2)c1` [Example 104] was tested. Which IC50 did it give?
The IC50 was at most 100 nM.

`Cc1ccc(NC(=O)c2cccc(C(C)(C)C#N)c2)cc1-c1cc(OCCO)nc(-c2ccnc3c2CC(=O)N3)c1` [Example 108] was tested. Which IC50 did it give?
Its IC50 is at most 100 nM.

With `Cc1ncc(NC(=O)c2ccnc(C(C)(C)C#N)c2)cc1-c1cccc(-c2ccnc3[nH]cnc23)c1` [Example 111] as the molecule, how does the IC50 read?
Its IC50 is 1000 to 10000 nM.

For `Cc1ccc(NC(=O)c2ccnc(C(C)(C)C#N)c2)cc1-c1cncc(-c2ccnc(NC(=O)C3CC3)c2)n1` [Example 112], which IC50 is on record?
The IC50 was at most 100 nM.

With `Cc1ccc(NC(=O)c2ccnc(C(F)(F)F)c2)cc1-c1ccnc(-c2ccnc(N)c2)n1` [Example 122] as the molecule, how does the IC50 read?
The IC50 was 1000 to 10000 nM.

For `CC(=O)Nc1cc(-c2cncc(-c3cc(NC(=O)c4cc(C(F)(F)F)ccn4)ccc3C)n2)ccn1` [Example 124], which IC50 is on record?
The IC50 was at most 100 nM.

With `CC(=O)Nc1cc(-c2cncc(-c3cc(NC(=O)c4cccc(C(C)(C)C#N)c4)ccc3C)n2)ccn1` [Example 125] as the molecule, how does the IC50 read?
Its IC50 is at most 100 nM.

With `Cc1ncc(NC(=O)c2ccnc(C(C)(C)C#N)c2)cc1-c1cccc(-c2ncnc3[nH]ncc23)c1` [Example 129] as the molecule, how does the IC50 read?
The IC50 was 100 to 500 nM.

For `COCC(=O)Nc1cc(-c2cccc(-c3cc(NC(=O)c4ccnc(C(F)(F)F)c4)cnc3C)n2)ccn1` [Example 130], which IC50 is on record?
The IC50 was 100 to 500 nM.

With `Cc1ncc(NC(=O)c2ccnc(C3CC3)c2)cc1-c1cccc(-c2ncnc3[nH]ncc23)c1` [Example 131] as the molecule, how does the IC50 read?
Its IC50 is 1000 to 10000 nM.

How did the IC50 turn out when `Cc1ccc(NC(=O)c2ccnc(C(C)(C)C#N)c2)cc1-c1cccc(-c2ccnc3[nH]ccc23)c1` [Example 133] was run?
Its IC50 is 500 to 1000 nM.

With `Cc1ccc(NC(=O)c2ccnc(C(C)(C)C#N)c2)cc1-c1cccc(-c2ccnc3[nH]ncc23)c1` [Example 134] as the molecule, how does the IC50 read?
Its IC50 is 100 to 500 nM.

`Cc1ccc(NC(=O)c2ccnc(C(C)(C)C#N)c2)cc1-c1ccnc(-c2ccnc(C(=O)NC3CC3)c2)c1` [Example 162] was tested. Which IC50 did it give?
The IC50 was 100 to 500 nM.

How did the IC50 turn out when `CNC(=O)c1cc(-c2cc(-c3cc(NC(=O)c4ccnc(C(C)(C)C#N)c4)ccc3C)cc(C3CC3)n2)ccn1` [Example 163] was run?
The IC50 was at most 100 nM.

For `CNC(=O)c1cc(-c2nccc(-c3cc(NC(=O)c4ccnc(C(C)(C)C#N)c4)c(F)cc3C)n2)ccn1` [Example 166], which IC50 is on record?
Its IC50 is 500 to 1000 nM.

`CNC(=O)c1cc(-c2cccc(-c3cc(NC(=O)c4ccnc(C(C)(C)C#N)c4)ccc3C)c2)ncn1` [Example 171] was tested. Which IC50 did it give?
The IC50 was 100 to 500 nM.

`CNC(=O)c1cc(-c2cc(-c3cc(NC(=O)c4ccnc(C(C)(C)C#N)c4)c(F)cc3C)ccn2)ccn1` [Example 176] was tested. Which IC50 did it give?
Its IC50 is 100 to 500 nM.

With `CNC(=O)c1cc(-c2cc(-c3cc(NC(=O)c4ccnc(C5(C#N)CC5)c4)ccc3C)ncn2)ccn1` [Example 178] as the molecule, how does the IC50 read?
Its IC50 is 100 to 500 nM.

For `Cc1ccc(NC(=O)c2ccnc(C3(C#N)CC3)c2)cc1-c1ccnc(-c2ccnc(NC(=O)C3CC3)c2)n1` [Example 180], which IC50 is on record?
The IC50 was at most 100 nM.

With `Cc1ncc(NC(=O)c2ccnc(C(C)(C)C#N)c2)cc1-c1cccc(-c2cc(NC(=O)C3CC3)ncn2)c1` [Example 181] as the molecule, how does the IC50 read?
The IC50 was at most 100 nM.
